Data published in ChEMBL document CHEMBL1201862, “PubChem BioAssay data set” (2004).
Activity calls are given as the source filed them.

Tests used:
[1] = cytotoxicity in HEK-293T cells, dose response, cytotoxicity control for BCR NF-kB inhibitor project, luminescence, B-cell screen hits (AID 489021); assay type: functional, cell-based;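 also: HEK-293T cells carrying an NF-kB luciferase reporter; cells exposed to compound for about 14 hours before viability readout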
[2] = molecular target: Eukaryotic translation initiation factor 4E (Mus musculus, UniProt P63073); test: eIF4E–eIF4G protein interaction inhibitors, dose response, biochemical, TR-FRET (AID 855); assay type: functional;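 also: potency for disrupting eIF4E binding to eIF4GI seen as loss of FRET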
[3] = A549 cell cytotoxicity, dose response, cytotoxicity control, plate reader, cherry-pick, antagonist series (AID 743412); assay type: functional, cell-based
[4] = HepG2 cell cytotoxicity, dose response, cytotoxicity control, plate reader, cherry-pick, antagonist series (AID 743416); assay type: functional, cell-based
[5] = HEK293 cell cytotoxicity, dose response, cytotoxicity control, plate reader, cherry-picked samples (AID 743446); assay type: functional, cell-based
[6] = molecular target: T1, Short transient receptor potential channel 4 (Mus musculus, UniProt Q9QUQ5); test: mouse TRPC4 channel inhibitors, dose response, cell-based, HEK293 TRPC4/mu-opioid, Fluo-4 calcium (AID 434942); assay type: functional;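 also: potency of inhibitors blocking the TRPC4 calcium response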
T1 sequence (Q9QUQ5 whole entry): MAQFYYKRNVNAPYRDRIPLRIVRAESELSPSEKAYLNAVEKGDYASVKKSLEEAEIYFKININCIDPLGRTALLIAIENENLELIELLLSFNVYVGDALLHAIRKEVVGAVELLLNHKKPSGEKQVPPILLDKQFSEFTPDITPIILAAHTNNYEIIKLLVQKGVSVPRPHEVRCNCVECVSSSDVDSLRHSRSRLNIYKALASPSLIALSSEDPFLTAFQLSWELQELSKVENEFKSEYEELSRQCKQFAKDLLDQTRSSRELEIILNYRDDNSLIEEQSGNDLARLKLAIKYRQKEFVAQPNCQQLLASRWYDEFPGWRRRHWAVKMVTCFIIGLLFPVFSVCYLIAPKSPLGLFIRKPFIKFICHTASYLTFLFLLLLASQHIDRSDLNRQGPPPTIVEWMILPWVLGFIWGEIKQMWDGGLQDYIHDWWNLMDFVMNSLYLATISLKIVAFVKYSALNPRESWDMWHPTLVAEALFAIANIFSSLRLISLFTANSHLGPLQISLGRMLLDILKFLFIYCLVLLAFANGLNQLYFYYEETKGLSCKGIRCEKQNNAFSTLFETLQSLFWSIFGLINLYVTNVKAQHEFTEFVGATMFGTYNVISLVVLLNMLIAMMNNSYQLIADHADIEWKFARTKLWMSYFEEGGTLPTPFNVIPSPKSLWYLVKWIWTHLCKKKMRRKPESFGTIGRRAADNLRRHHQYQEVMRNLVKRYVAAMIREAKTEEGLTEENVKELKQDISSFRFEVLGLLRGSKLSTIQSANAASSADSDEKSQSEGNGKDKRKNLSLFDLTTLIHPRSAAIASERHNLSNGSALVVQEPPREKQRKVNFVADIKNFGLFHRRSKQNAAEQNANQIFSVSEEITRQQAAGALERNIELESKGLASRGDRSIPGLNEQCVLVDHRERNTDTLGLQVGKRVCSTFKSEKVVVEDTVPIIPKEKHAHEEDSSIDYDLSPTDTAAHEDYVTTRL

[7] = molecular target: Genome polyprotein (dengue virus type 2, UniProt P29990); test: Dengue-2 NS5 methyltransferase inhibitors, primary screen, biochemical, confirmation dose response (AID 588689); assay type: functional
[8] = molecular target: T1, Short transient receptor potential channel 4; test: mouse TRPC4 channel activators, dose response, cell-based, HEK293 TRPC4/mu-opioid, Fluo-4 calcium (AID 434937); assay type: functional
[9] = inhibitors of HIV Env-driven cell fusion, dose response, cherry-pick (AID 652057); assay type: functional, cell-based
[10] = CEM21 lymphoblast cell cytotoxicity, dose response, cytotoxicity control for viral fusion inhibitor project, CellTiter-Glo luminescence, cherry-picked (AID 652042); assay type: functional, cell-based;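 also: potency for signal decrease meaning cytotoxicity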
[11] = ZM109 Env clade C HIV-1 fusion inhibitors, dose response, HeLa effector, CEM target cells, luciferase, cherry-pick (AID 652058); assay type: functional, cell-based
[12] = off-target signal loss in HeLa-CEM21 co-culture – HeLa F-luc CTL cells, cherry-picked, counter-screen for HIV-1 Env fusion inhibitor project, dose response (AID 652040); assay type: functional, cell-based;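 also: potency for signal decrease marking cytotoxic or nonspecific inhibition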
[13] = inhibitors of clade B AD8 Env fusion, dose response, cell-based, cherry-pick (AID 652062); assay type: functional;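 also: luciferase signal from cell-cell fusion driven by HIV-1 clade B AD8 Env; potency is for inhibitors of fusion seen as a drop in luminescence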
[14] = Luminescence Cell-Based Dose Confirmation HTS to Identify Activators of 5'UTR Stem-Loop Driven Alpha-Synuclein mRNA Translation in H4 Neuroglioblastoma Cells. [Related pubchem assays: 1829 (Project Summary), 1814 (Primary HTS)]; assay type: functional
[15] = Luminescence Cell-Based Dose Response HTS to Identify Activators of Luciferase Translation or Activity in H4 […] Cells. [Related pubchem assays: 1829 (Project Summary), 1814 (Primary HTS)]; assay type: functional
[16] = tested on: H4; test: Luminescence Cell-Based Dose Response HTS to Identify Activators of 5'UTR Stem-Loop Driven Prion Protein mRNA Translation in H4 Neuroglioblastoma Cells. [Related pubchem assays: 1829 (Project Summary), 1814 (Primary HTS)]; assay type: functional; details: Homo sapiens
[17] = molecular target: T2, Rac GTPase-activating protein 1 (Homo sapiens, UniProt Q9H0H5); test: MgcRacGAP GTPase-activating activity inhibitors, confirmation, biochemical, ADP Hunter fluorescence, primary and confirmatory (AID 624330); assay type: functional
T2 sequence (Q9H0H5 whole entry): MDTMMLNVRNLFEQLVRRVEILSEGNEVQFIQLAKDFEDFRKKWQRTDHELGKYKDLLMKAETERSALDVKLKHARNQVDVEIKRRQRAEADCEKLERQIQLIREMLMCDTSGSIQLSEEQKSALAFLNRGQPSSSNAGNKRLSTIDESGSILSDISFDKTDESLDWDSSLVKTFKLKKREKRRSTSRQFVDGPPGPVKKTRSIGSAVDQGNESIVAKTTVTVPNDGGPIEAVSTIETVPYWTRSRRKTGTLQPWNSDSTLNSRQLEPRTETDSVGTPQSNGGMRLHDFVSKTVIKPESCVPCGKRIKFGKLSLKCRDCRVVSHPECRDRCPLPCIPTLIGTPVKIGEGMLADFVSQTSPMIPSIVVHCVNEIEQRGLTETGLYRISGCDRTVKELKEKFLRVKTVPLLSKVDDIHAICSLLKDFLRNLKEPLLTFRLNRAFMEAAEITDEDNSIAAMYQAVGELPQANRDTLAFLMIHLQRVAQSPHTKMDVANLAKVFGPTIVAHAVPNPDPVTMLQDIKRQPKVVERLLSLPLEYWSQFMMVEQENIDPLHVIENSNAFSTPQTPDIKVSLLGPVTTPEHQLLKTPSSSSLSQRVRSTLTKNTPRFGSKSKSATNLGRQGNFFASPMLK

[18] = molecular target: Nonstructural protein 1 (Influenza A virus, UniProt Q194T2); assay type: functional, Influenza A virus (A/California/07/2009(H1N1))
Sequence of Nonstructural protein 1 (Q194T2 whole entry): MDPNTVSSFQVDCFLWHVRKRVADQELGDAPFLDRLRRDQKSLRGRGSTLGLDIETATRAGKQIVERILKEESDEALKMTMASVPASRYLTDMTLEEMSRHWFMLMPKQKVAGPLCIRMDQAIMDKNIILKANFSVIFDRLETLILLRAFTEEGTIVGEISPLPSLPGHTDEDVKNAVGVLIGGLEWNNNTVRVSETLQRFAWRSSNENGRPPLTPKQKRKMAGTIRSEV

Sequence of Eukaryotic translation initiation factor 4E (P63073 whole entry): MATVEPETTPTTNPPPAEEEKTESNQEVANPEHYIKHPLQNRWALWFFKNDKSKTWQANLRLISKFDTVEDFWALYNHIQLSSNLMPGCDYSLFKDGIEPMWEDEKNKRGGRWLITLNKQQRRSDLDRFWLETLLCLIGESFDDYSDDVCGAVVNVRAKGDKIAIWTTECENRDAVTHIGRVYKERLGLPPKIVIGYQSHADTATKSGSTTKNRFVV
Sequence of Genome polyprotein (P29990 2492-3391 limits assumed): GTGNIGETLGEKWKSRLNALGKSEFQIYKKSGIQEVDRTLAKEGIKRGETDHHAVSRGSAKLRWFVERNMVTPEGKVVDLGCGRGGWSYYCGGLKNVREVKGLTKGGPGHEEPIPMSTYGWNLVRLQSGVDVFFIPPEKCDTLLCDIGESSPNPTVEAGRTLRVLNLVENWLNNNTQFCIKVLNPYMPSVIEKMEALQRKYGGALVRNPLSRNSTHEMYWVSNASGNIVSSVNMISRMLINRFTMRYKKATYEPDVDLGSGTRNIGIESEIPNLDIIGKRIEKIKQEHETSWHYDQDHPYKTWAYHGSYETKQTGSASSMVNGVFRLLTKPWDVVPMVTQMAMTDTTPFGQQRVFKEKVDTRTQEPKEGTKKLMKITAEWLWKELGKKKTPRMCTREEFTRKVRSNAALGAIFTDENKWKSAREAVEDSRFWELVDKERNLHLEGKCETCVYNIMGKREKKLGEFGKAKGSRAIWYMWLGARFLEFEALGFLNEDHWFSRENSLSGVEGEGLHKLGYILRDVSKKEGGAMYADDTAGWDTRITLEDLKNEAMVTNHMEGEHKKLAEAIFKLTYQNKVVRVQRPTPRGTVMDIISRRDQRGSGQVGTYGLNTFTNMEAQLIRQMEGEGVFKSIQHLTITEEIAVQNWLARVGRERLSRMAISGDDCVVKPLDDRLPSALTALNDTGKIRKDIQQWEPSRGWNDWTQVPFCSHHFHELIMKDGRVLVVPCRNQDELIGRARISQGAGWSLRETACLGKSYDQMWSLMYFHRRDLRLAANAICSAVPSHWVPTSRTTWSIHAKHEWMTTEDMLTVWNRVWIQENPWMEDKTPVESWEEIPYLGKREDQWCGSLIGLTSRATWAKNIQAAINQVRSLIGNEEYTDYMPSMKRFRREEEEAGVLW

With `Cc1ccc(C)c(OCc2ccc(C(=O)NN)o2)c1` the IC50 [1] was > 80 µM (inactive).

In the case of `C=CCn1c(S)nnc1-c1ccco1`, the IC50 [2] is reported as > 64 µM (inactive).

With `O=C(CSc1[nH]cnc2nncc1-2)Nc1nc(-c2ccc(F)c(F)c2)cs1` the AC50 [3] was 46.1 µM (active), the AC50 [4] was > 52 µM (inactive) and the AC50 [5] was > 52 µM (inactive).

For `CCCCOc1ccc(Nc2cc(Cl)ccc2C(=O)O)cn1`, the EC50 [6] was 10.6 µM (active) and the IC50 [7] was 59.8 µM (active).

In the case of `COc1ccc(C(CCNCc2ccc(N(C)C)cc2)c2ccccc2)cc1` (stereo unspecified), the EC50 [8] is reported as 5.96 µM (active), the AC50 [9] is reported as 4.13 µM (active) and the AC50 [10] is reported as 18.2 µM (active). For the same molecule, the AC50 [11] was 14.4 µM (active), the AC50 [12] was 17.5 µM (active) and the AC50 [13] was 26.1 µM (active).

In the case of `C=CCN1C(=O)CS/C1=N\c1cccc(O)c1`, the IC50 [2] is reported as > 64 µM (inactive).

In the case of `Cc1nnc(SC(=O)N2c3ccccc3Sc3ccccc32)s1`, the EC50 [14] is reported as > 120 µM (not active), the EC50 [15] is reported as > 60 µM (not active) and the EC50 [16] is reported as > 120 µM (not active). For the same molecule, the AC50 [10] was 10.6 µM (active), the AC50 [12] was 30.8 µM (active) and the AC50 [13] was 3.79 µM (active).

In the case of `Oc1cc(O)cc(-c2cc3ccc(O)cc3o2)c1` [MORACIN M], the IC50 [1] is reported as > 80 µM (inactive) and the IC50 [17] is reported as 23 µM (active).

For `CCn1c(=O)cc(OCC(=O)NCc2ccc(C)o2)c2ccccc21`, the IC50 [1] was > 80 µM (inactive).

With `C/C(CC(=O)N(C(C)C)C(C)C)=N\NC(=O)COc1ccc(Cl)cc1Cl` the EC50 [6] was 13.3 µM (active).

In the case of `Cc1cc(C)cc(NC(=N)Nc2nc(C)cc(C)n2)c1`, the EC50 [6] is reported as 2.99 µM (active).

For `O=C(N/N=C/c1ccc(O)cc1O)c1ccncc1`, the IC50 [18] was 5.88 µM (active).
